From paper PMC8049364, “Quantification of Macrophage-Driven Inflammation During Myocardial Infarction with ^18F-LW223, a Novel TSPO Radiotracer with Binding Independent of the rs6971 Human Polymorphism” (Journal of Nuclear Medicine, 2021)

Tests used:
[1] = Radiometabolite analysis of blood and tissue in naïve rats; assay type: in vivo, rat; conditions: for Parent fraction: population curve
Description: Arterial blood samples were collected at 2, 5, 10, 20, 30, 60, and 120 min after radiotracer injection (69.7 ± 9.1 MBq [mean ± SEM], n = 17 rats), and heart, lung, and brain tissue samples were collected at 60 and 120 min. Blood and tissues were processed as detailed in the supplemental materials.
Invasive Input Function Measurement
Polyethylene catheters (PE50) filled with heparinized saline (20 IU/mL) were inserted into the left femoral artery and vein with the help of a stereomicroscope and securely fastened with ligatures (6-0 silk thread). […]
Radiometabolite Blood and Tissue Processing and Analysis
All blood samples were 1 mL each and manually collected from different animals to generate a population curve, in order to respect total blood volume limits for terminal arterial blood collections in rats. Following blood and tissue collection, all samples were […]
kept on ice until analyzed. Radioactivity in whole blood and plasma, as well as homogenized tissue samples, was assessed using a well-type γ-counter using a 400– 1400 keV window (Perkin Elmer Wizzard2, USA). Plasma samples (400 μl) and tissue samples (500 μl) were processed by acetonitrile denaturation (1:1.4 v/v) and analyzed by HPLC (Ultimate2000, ThermoFisher, UK) on a Luna C18(2) 10×250 mm, 10 μm column (Phenomenex, UK) with acetonitrile/water 70/30 and flow rate of 4 mL/min to estimate the […]
parent fraction. […]

[2] = Plasma free fraction by ultrafiltration; assay type: in vitro ADME; conditions: Sprague-Dawley, rat, mean ± SEM, n = 5, read-out: parent free fraction in plasma
Description: kept on ice until analyzed. Radioactivity in whole blood and plasma, as well as homogenized tissue samples, was assessed using a well-type γ-counter using a 400– 1400 keV window (Perkin Elmer Wizzard2, USA). Plasma samples (400 μl) and tissue samples (500 μl) were processed by acetonitrile denaturation (1:1.4 v/v) and analyzed by HPLC (Ultimate2000, ThermoFisher, UK) on a Luna C18(2) 10×250 mm, 10 μm column (Phenomenex, UK) with acetonitrile/water 70/30 and flow rate of 4 mL/min to estimate the parent fraction. The plasma fp was determined using ultrafiltration units (Centrifree® 30K, […]
Simulation of Changes in 18F-LW223 BPND for varying blood flow scenarios Simulation work was carried out using a Matlab (MathWorks, USA) 2-tissue compartment code with Ordinary Differential Equation (ODE) solvers. Six different levels of K1 values (0.9, 0.7, 0.5, 0.3, 0.1 and 0.01 mL/min/cc) were tested with fixed k2 and vB=0.05. The following BPND values were simulated: 4, 10, 16 and 20; with k3 modified and k4 fixed. All micro parameters used in the simulations are shown in Supplementa l Table 5. The input function used was an average of the blood curve s taken from healthy animals using the SwissTrace blood sampler (Supplemental Data File 1). The plasma to whole blood ratio used was 1.84 and the AIF was metabolite corrected using a population based curve as in the experimental data. […]

[3] = Dosimetry from whole-body PET in mice (OLINDA/EXM, estimated for humans); assay type: in vivo
Description: Thirty-two PET scans were performed with ^18F-LW223 (17.8 ± 1.5 MBq, intravenous bolus, mean ± SEM). Naïve and MI rat scans were acquired immediately after intravenous bolus injection of ^18F-LW223. […] Dosimetry studies were conducted using mice and 240-min PET scans.
The following organs were identified as source organs: brain, heart, lung, gallbladder, liver, gut, adrenals, kidneys, and bladder. A whole-body VOI was drawn around the animal body and was used to quantify whole-body remainder activity as whole-body activity minus source-organ activity. At each time point, the measured activity of the source organs was expressed as the percentage injected dose. The residence time (τ), defined as the ratio of accumulated activity in the target organ (Ā) and injected activity (A0) (i.e., τ = Ā/A0 ([20])), was calculated as previously described ([21]). Calculated τ was normalized on the basis of the factors shown in Supplemental Table 3 ([22]–[26]) and entered into OLINDA/EXM software, version 1.0, to estimate organ doses and effective doses.
Organ Mouse Human Correction Factor
% Total body weight % Total body weight
Supplemental Table 3. Scaling factors for different organs in mice and humans based on their percentage contribution to total body weight. Data presented in this table was calculated based on previously published data.

Structure (SMILES): CC[C@@H](C)N(C)C(=O)c1nc2ccccc2c(-c2ccccc2)c1C[18F] [^18F-LW223]
- Parent fraction ([1]; 2 min): 0.95
- Parent fraction ([1]; 5 min): 0.82
- Parent fraction ([1]; 10 min): 0.81
- Parent fraction ([1]; 20 min): 0.81
- Parent fraction ([1]; 30 min): 0.77
- Parent fraction ([1]; 120 min): 0.69
- radiometabolites in brain, heart, and lung ([1]; rat, 60 and 120 min after administration): less than 12.7%
- plasma to whole blood ratio ([1]; used for input function correction): 1.84
- fraction unbound [2]: 0.385
- Effective dose ([3]; Female (n = 5)): 0.02 mSv/MBq
- Estimated absorbed dose, Adrenals ([3]; Female (n = 5)): 3.67 ×10^−2 mGy/MBq
- Estimated absorbed dose, Brain ([3]; Female (n = 5)): 0.56 ×10^−2 mGy/MBq
- Estimated absorbed dose, Breasts ([3]; Female (n = 5)): 0.86 ×10^−2 mGy/MBq
- Estimated absorbed dose, Gallbladder wall ([3]; Female (n = 5)): 2.46 ×10^−2 mGy/MBq
- Estimated absorbed dose, Heart wall ([3]; Female (n = 5)): 1.89 ×10^−2 mGy/MBq
- Estimated absorbed dose, Kidneys ([3]; Female (n = 5)): 1.54 ×10^−2 mGy/MBq
- Estimated absorbed dose, Liver ([3]; Female (n = 5)): 1.95 ×10^−2 mGy/MBq
- Estimated absorbed dose, Lower large intestine wall ([3]; Female (n = 5)): 9.26 ×10^−2 mGy/MBq
- Estimated absorbed dose, Lung ([3]; Female (n = 5)): 3.31 ×10^−2 mGy/MBq
- Estimated absorbed dose, Muscle ([3]; Female (n = 5)): 0.98 ×10^−2 mGy/MBq
- Estimated absorbed dose, Osteogenic cells ([3]; Female (n = 5)): 1.52 ×10^−2 mGy/MBq
- Estimated absorbed dose, Ovaries ([3]; Female (n = 5)): 1.66 ×10^−2 mGy/MBq
- Estimated absorbed dose, Pancreas ([3]; Female (n = 5)): 1.26 ×10^−2 mGy/MBq
- Estimated absorbed dose, Red marrow ([3]; Female (n = 5)): 0.98 ×10^−2 mGy/MBq
- Estimated absorbed dose, Skin ([3]; Female (n = 5)): 0.74 ×10^−2 mGy/MBq
- Estimated absorbed dose, Small intestine ([3]; Female (n = 5)): 1.30 ×10^−2 mGy/MBq
- Estimated absorbed dose, Spleen ([3]; Female (n = 5)): 1.11 ×10^−2 mGy/MBq
- Estimated absorbed dose, Stomach wall ([3]; Female (n = 5)): 1.15 ×10^−2 mGy/MBq
- Estimated absorbed dose, Thymus ([3]; Female (n = 5)): 1.07 ×10^−2 mGy/MBq
- Estimated absorbed dose, Thyroid ([3]; Female (n = 5)): 0.89 ×10^−2 mGy/MBq
- Estimated absorbed dose, Total body ([3]; Female (n = 5)): 1.07 ×10^−2 mGy/MBq
- Estimated absorbed dose, Upper large intestine wall ([3]; Female (n = 5)): 1.24 ×10^−2 mGy/MBq
- Estimated absorbed dose, Urinary bladder wall ([3]; Female (n = 5)): 1.48 ×10^−2 mGy/MBq
- Estimated absorbed dose, Uterus ([3]; Female (n = 5)): 1.29 ×10^−2 mGy/MBq
- Effective dose ([3]; Male (n = 8)): 0.02 mSv/MBq
- Estimated absorbed dose, Adrenals ([3]; Male (n = 8)): 2.22 ×10^−2 mGy/MBq
- Estimated absorbed dose, Brain ([3]; Male (n = 8)): 0.59 ×10^−2 mGy/MBq
- Estimated absorbed dose, Breasts ([3]; Male (n = 8)): 0.72 ×10^−2 mGy/MBq
- Estimated absorbed dose, Gallbladder wall ([3]; Male (n = 8)): 2.01 ×10^−2 mGy/MBq
- Estimated absorbed dose, Heart wall ([3]; Male (n = 8)): 2.03 ×10^−2 mGy/MBq
- Estimated absorbed dose, Kidneys ([3]; Male (n = 8)): 1.57 ×10^−2 mGy/MBq
- Estimated absorbed dose, Liver ([3]; Male (n = 8)): 1.30 ×10^−2 mGy/MBq
- Estimated absorbed dose, Lower large intestine wall ([3]; Male (n = 8)): 7.82 ×10^−2 mGy/MBq
- Estimated absorbed dose, Lung ([3]; Male (n = 8)): 3.10 ×10^−2 mGy/MBq
- Estimated absorbed dose, Muscle ([3]; Male (n = 8)): 0.80 ×10^−2 mGy/MBq
- Estimated absorbed dose, Osteogenic cells ([3]; Male (n = 8)): 1.20 ×10^−2 mGy/MBq
- Estimated absorbed dose, Pancreas ([3]; Male (n = 8)): 1.03 ×10^−2 mGy/MBq
- Estimated absorbed dose, Red marrow ([3]; Male (n = 8)): 0.82 ×10^−2 mGy/MBq
- Estimated absorbed dose, Skin ([3]; Male (n = 8)): 0.61 ×10^−2 mGy/MBq
- Estimated absorbed dose, Small intestine ([3]; Male (n = 8)): 1.11 ×10^−2 mGy/MBq
- Estimated absorbed dose, Spleen ([3]; Male (n = 8)): 0.91 ×10^−2 mGy/MBq
- Estimated absorbed dose, Stomach wall ([3]; Male (n = 8)): 0.94 ×10^−2 mGy/MBq
- Estimated absorbed dose, Testes ([3]; Male (n = 8)): 0.77 ×10^−2 mGy/MBq
- Estimated absorbed dose, Thymus ([3]; Male (n = 8)): 0.90 ×10^−2 mGy/MBq
- Estimated absorbed dose, Thyroid ([3]; Male (n = 8)): 0.79 ×10^−2 mGy/MBq
- Estimated absorbed dose, Total body ([3]; Male (n = 8)): 0.89 ×10^−2 mGy/MBq
- Estimated absorbed dose, Upper large intestine wall ([3]; Male (n = 8)): 1.00 ×10^−2 mGy/MBq
- Estimated absorbed dose, Urinary bladder wall ([3]; Male (n = 8)): 1.16 ×10^−2 mGy/MBq
- whole-body effective dose ([3]; female animals): 24.5 μSv/MBq
- whole-body effective dose ([3]; male animals): 20.5 μSv/MBq
- estimated dosimetry (effective dose) ([3]; mouse, in vivo): 0.020 mSv/MBq
- critical organ (dosimetry) ([3]; naïve mice): lower large intestine
- Effective dose ([3]; range over male and female): 20.5–24.5 μSv/MBq
